Measured values as given in patent publication US11337935B2, “Identification of stabilizers of multimeric proteins” (The Board of Trustees of the Leland Stanford Junior …, priority 2010, dated 2022).

Experiments:
TTR [1] = target: T1, TTR (Homo sapiens (Human), UniProt P02766); test: Determination of IC50 using the FP assay (HTS format); type: binding; conditions: read-out: IC50 (50% decrease in the FP signal); repurchased top 33 hits, 10-point duplicate dose-response
WT TTR = WT TTR (Homo sapiens (Human), UniProt P02766); test: Acid-mediated fibril formation assay for TTR amyloidogenesis (turbidity); conditions: ligand 7.2 μM, TTR 3.6 μM, pH 4.4, 37° C., 72 h; no inhibitor = 100%
Description: The efficacy of each compound to inhibit TTR amyloidogenesis was determined by monitoring the turbidity of TTR aggregation at acidic pH, as described previously. […] The final 1 ml sample mixture was vortexed, then incubated at 37° C. for 72 hours, after which the sample was vortexed and the optical density was measured at 400 nm on a Beckman DU® 640 spectrophotometer. […] The optical density was also corrected for the absorption of all test compounds in the absence of TTR. […] The optical density (400 nm) was measured as described above at 0, 24, 48, 72, 96, and 120 hours. All assays were performed in triplicate and the average values obtained are presented.
TTR was preincubated with small molecules for 30 min at room temperature before amyloidosis was initiated (lowering pH to 4.4, incubation at 37° C.). […] The amyloidogenesis inhibition efficacy of each compound was determined by monitoring the turbidity of TTR (400 nm). The extent of TTR amyloidogenesis was quantitated at a fixed time point (72 h). All amyloid fibril formation data was normalized to TTR amyloidogenesis in the absence of inhibitor, assigned to be 100% fibril formation. […] The aggregation inhibition was monitored over 5 days using the acid-mediated fibril formation assay (compared to 3 days for the fixed time point described above) (FIG. 5B).

[2] = test system: WT TTR cytotoxicity in human IMR-32 neuroblastoma cells; test: Inhibition of WT TTR cytotoxicity; conditions: WT TTR and ligand 8 μM each, IMR-32, 24 h
Description: (§1) The human cardiac cell line AC16 was maintained in DMEM:F12 (1:1) supplemented with 10% FBS, 1 mM Hepes buffer, 2 mM L-glutamine, 100 units/mL penicillin and 100 μg/mL streptomycin. Two to 4-day-old cultures (˜70% confluent) were used for the experiments.
(§2) Recombinant WT TTR purified in the cold in HBSS (Mediatech, Manassas, Va.) was used as a cytotoxic insult to IMR-32 cells and the amyloidogenic V122I TTR was used as cytotoxic insult to cardiac AC16 cells. Candidate compounds (16 mM in DMSO) were diluted 1:1000 with WT TTR or V122I TTR (16 mM in HBSS, filter sterilized) or with HBSS only. The mixtures were vortexed and incubated for 24 h at 4° C. WT TTR or V122I TTR (16 mM in HBSS) containing the same amount of DMSO than TTR/candidate compound mixtures was prepared in parallel and incubated under the same conditions.
(§3) The neuroblastoma IMR-32 and the cardiac AC16 cells were seeded in black wall, clear bottom, tissue culture treated 96-well plates (Costar) at a density of 6,000 cells/well and 250 cells/well, respectively in Opti-mem supplemented with 5% FBS, 1 mM Hepes buffer, 2 mM L-glutamine, 100 units/mL penicillin and 100 μg/mL streptomycin, 0.05 mg/mL CaCl2 and incubated overnight at 37° C. The medium was then removed and replaced immediately by the TTR/compound or HBSS previously diluted 1:1 in Opti-mem supplemented with 0.8 mg/mL BSA, 2 mM Hepes buffer, 4 mM L-glutamine, 200 units/mL penicillin, 200 μg/mL streptomycin and 0.1 mg/mL CaCl2. The cells were incubated 24 h at 37° C. after which cell viability was measured.
(§4) Cell viability of the cells treated with TTR or TTR/candidate compound was evaluated by a resazurin reduction assay. Briefly, 10 μL/well of resazurin (500 mM, PBS) was added to each well and incubated for 2-3 h at 37° C. Viable cells reduce resazurin to the highly fluorescent resorufin dye, which is quantitated in a multiwell plate reader (Ex/Em 530/590 nm, Tecan Safire2, Austria). Cell viability was calculated as percentage of fluorescence relative to cells treated with vehicle only (100% viability) after subtraction of blank fluorescence (wells without cells). All experimental conditions were performed at least in six replicates. Averages and SEM corresponding to 2 independently performed experiments were calculated.
(§5) The compounds under study were pre-incubated with WT TTR or V122I TTR for 24 h at 4° C. at equimolar concentrations (8 μM) and added to IMR-32 cells or AC16 cells, respectively. Cell viability was measured after 24 h by a resazurin reduction assay. […] The percentage of viable cells was calculated relative to cells treated with vehicle only (cell culture media and DMSO)—which were assigned to be 100% viable.

[3] = test system: V122I TTR cytotoxicity in human AC16 cardiac cells; test: Inhibition of V122I TTR cytotoxicity; conditions: V122I TTR and ligand 8 μM each, AC16, 24 h
Description: as §1, §2, §3, §4, §5

human wild type TTR = human wild type TTR (Homo sapiens (Human), UniProt P02766); test: Isothermal titration calorimetry (ITC) of ligands against TTR; type: binding
Description: Calorimetric titrations were carried out on a VP-ITC calorimeter (MicroCal, Northhampton, Mass.). […] Prior to each titration, all samples were degassed for 10 minutes. The initial injection of 3.0 μL was followed by 30 injections of 8.0 μL each (25° C.) to the point that TTR was fully saturated with ligand. Integration of the thermogram after subtraction of blanks yielded a binding isotherm that was analyzed with MicroCal Origin 5.0 software.

[4] = target: wild type biotinylated TTR (Homo sapiens (Human), UniProt P02766); test: Surface plasmon resonance (SPR) assay on immobilized biotinylated TTR; type: binding
Description: To an ice-cold solution of TTR (20 μM) in PBS was added EZ-Link Sulfo-NHS-LC-Biotin at a ratio of ˜2:1 (biotin:TTR) (minimal biotinylation) and the solution was incubated at room temperature. After 1 hour, un-reacted biotin was removed by passing the sample over a fast (FPLC) desalting column (Superdex™ 75) equilibrated with PBS.
SPR measurements were performed at 25° C. using a Biacore T100 (GE Healthcare) instrument equilibrated in 1% DMSO in PBS as a running buffer. After pretreatment of the streptavidin-coated chip (Sensor Chop SA, Biacore), ˜4000 RU biotinylated TTR was immobilized on one channel leaving the second flow channel as a blank (streptavidin alone) control. For binding measurements, HTS hits were diluted in running buffer (1% DMSO/PBS) and different dilution series were flowed over the chip at 50 μL/min ([…], 600 s wash). A zero concentration sample was used as a negative control. The kinetic data was fitted to a one-to-one binding model using Biacore T100 evaluation software.

TTR [5] = target: T1, TTR; test: FP saturation binding experiment; conditions: FITC alone
Description: The binding of probe 5 for TTR was evaluated as follows. […] The samples were allowed to equilibrate by agitation for 20 min at room temperature. Fluorescence polarization (excitation λ 485 nm, emission λ 525 nm, Cutoff λ 515 nm) measurements were taken using SpectraMax M5 Microplate Reader (Molecular Devices). […] Nonspecific FP, produced by the free fluorescent probe 5 as well as by binding of 5 to the plate, was equal to 70±10 mP.

Compound	Prevention of TTR-induced cytotoxicity [2]	Prevention of TTR-induced cytotoxicity [3]	other results
Cc1ccc(Cl)c(Nc2ccccc2C(=O)O)c1Cl			IC50 (TTR [1]): 504 nM; % fibril formation (WT TTR): 3.87 ± 0.93%
O=[N+]([O-])c1cc(O)c(O)c([N+](=O)[O-])c1 [3,5-dinitrocatechol, 3,5-dinitrocatechol, reference compound]	poor inhibitor	poor inhibitor	
O=C(O)c1ccccc1Nc1cc(Cl)c(OCCOCCOCCNC(=S)Nc2ccc3c(c2)C(=O)OC32c3ccc(O)cc3Oc3cc(O)ccc32)c(Cl)c1 [Compound 5, 2-(3,5-dichloro-4-(2-(2-(2-(3-(3′,6′-dihydroxy-3-oxo-3H-spiro[isobenzofuran-1,9′-xanthene]-5-yl)thioureido)ethoxy)ethoxy)ethoxy)phenylamino)benzoic acid]			Decrease in binding affinity to TTR relative to 4 (fold) (human wild type TTR): ~3 fold
Cc1n[nH]c(C)c1CCCOc1ccccc1F [Compound 7]	completely prevented	completely prevented	
CN1C(=N)NC(=O)/C1=C/c1cc(Br)c(O)c(Br)c1 [Compound 14]	completely prevented	completely prevented	
Cc1n[nH]c(C)c1CCc1nc2c3ccccc3[nH]c(=S)n2n1 [Compound 15]	completely prevented	completely prevented	
O=C(O)Cc1ccccc1Nc1c(Cl)cccc1Cl [Diclofenac]			lower target residence time than 7 (fold) [4]: ~40 ×
O=C(O)c1cccnc1Nc1cccc(C(F)(F)F)c1 [Niflumic acid, niflumic acid, reference compound]		relatively poor inhibitor	
O=C(c1cc(O)c(O)c([N+](=O)[O-])c1)c1ccccc1F [Ro 41-0960, reference compound]	completely prevented	completely prevented	
O=C(O)Cc1ccccc1Nc1c(Cl)cccc1Cl [drawing 78]			IC50 (TTR [1]): 3740 nM; % fibril formation (WT TTR): 11.56 ± 0.72%
Fluorescein isothiocyanate [FITC]			Interaction with TTR (change in FP signal upon addition of TTR) (TTR [5]): no interaction with TTR
